Experimental data published in paper PMC7616191 (Molecular pharmacology, 2018).

Target: T1, human muscarinic acetylcholine M1 receptor (hM1 mAChR) (Homo sapiens, UniProt P11229)
T1 sequence (P11229 1-460): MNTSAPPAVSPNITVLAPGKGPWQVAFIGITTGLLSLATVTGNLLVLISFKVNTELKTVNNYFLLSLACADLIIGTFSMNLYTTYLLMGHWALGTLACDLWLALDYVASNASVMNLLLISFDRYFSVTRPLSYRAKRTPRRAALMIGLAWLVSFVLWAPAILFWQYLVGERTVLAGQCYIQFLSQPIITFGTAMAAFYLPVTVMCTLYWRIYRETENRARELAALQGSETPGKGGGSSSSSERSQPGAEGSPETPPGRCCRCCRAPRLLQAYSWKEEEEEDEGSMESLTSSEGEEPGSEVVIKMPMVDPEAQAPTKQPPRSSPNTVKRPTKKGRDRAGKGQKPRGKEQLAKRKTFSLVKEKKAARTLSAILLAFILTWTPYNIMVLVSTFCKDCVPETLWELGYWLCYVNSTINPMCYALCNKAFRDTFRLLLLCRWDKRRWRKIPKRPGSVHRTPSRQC
Assay: IP1 accumulation
Type: cell-based
Conditions: vehicle-pretreated control; orthosteric agonist; […]°C, […] h, pH […]

C[N+](C)(C)CC#CCN1CCCC1=O [Oxo-M]
pEC50^a: 6.08 ± 0.13
